From patent EP0106060A2, “Imidazole derivatives and salts thereof, their synthesis, and pharmaceutical formulations” (THE WELLCOME FOUNDATION LIMITED, priority 1982, dated 1984)
≈ marks a conversion by molar mass, not a printed value. Where a name gives a salt, the structure may show the parent alone.

Tests used:
[1] = system: Thromboxane A2 Synthetase; assay: Determination of thromboxane A2 synthetase inhibitory activity (lysed horse platelets, [1-14C]-arachidonic acid conversion, TLC/scintillation counting); format: biochemical; conditions: concentration of active compound required to reduce the enzyme activity by 50%; horse platelet lysate, 3 min at 37°C
Method: The active compound was dissolved in a suitable solvent at a concentration of 5 mg/ml, and 20 µl added to 0.8 ml of 100 mM Tris buffer (pH 7.5). The platelets from 5 ml of horse PRP were centrifuged and resuspended in 100µl of Tris buffer. After lysis by sonication or freeze thawing, the platelet suspension was added to the solution of active compound and equilibrated for 5 min at room temperature. Then 300 ng (50 nCi) of [1-^14C]-arachidonic acid, dissolved in 100 µl Tris buffer, was added and the mixture incubated for 3 min at 37°C. The reaction was stopped with 50 ul 2N HCl and the products extracted with 1.5 volumes ethyl acetate by whirling for 30 seconds. 1 ml saturated NaCl was added to the aqueous phase to prevent emulsion formation. […] The plate was developed in chloroform, methanol, acetic acid, water (90:8:1:0.8), dried and then visualised by autoradiography for 2-3 days. […] The concentration of active compound required to reduce the enzyme activity by 50% (ED50) was established.

[2] = system: Thromboxane A2 Synthetase; assay: Duration of action of thromboxane A2 synthetase inhibitors in vivo (oral dosing, thromboxane A2 in serum of clotted blood by RIA); parameters: species or system N.Z. male rabbits; conditions: rabbit, period over which thromboxane A2 concentration is depressed relative to controls
Method: N.Z. male rabbits weighing 2.5 kg are anaesthetized with sodium pentobarbitone and chloralose and one carotoid artery is cannulated. Blood samples (lml) are taken for incubation; two as controls and one, adding 10 µg indomethacin, as a blank. After each sample is taken the cannula is flushed with saline. The active compound is then administered orally and further samples at half hour intervals for five to eight hours. The blood samples for the controls and the active compound are incubated in glass tubes for 45 minutes at 37°C to clot the blood. Indomethacin is added and the tubes centrifuged to separate the serum which is pipetted off for RIA analysis to determine the concentration of thromboxane A2. The period of time over which the inhibitor depressed the concentration of thromboxane A2 relative to the controls is then determined.

| Structure (SMILES) | ED50 [1] | duration of action ([2]; dose of 160 mg/kg) | duration of action ([2]; dose of 2 mg/kg) |
| --- | --- | --- | --- |
| Cl.O=C(O)c1ccc(Cn2ccnc2)c(Cl)c1 [Example 1, 1-(4-Carboxy-2-chlorobenzyl)imidazole hydrochloride] | 6.6 µg/mL | at least 5 hours |  |
| CCOC(=O)/C=C/c1ccc(Cn2ccnc2)c(Cl)c1 [Example 2, Ethyl (E)-3-[3-chloro-4-(imidazol-1-ylmethyl)phenyl]prop-2-enoate] | 0.5 µg/mL (≈ 1.72 µM) |  |  |
| Cl.O=C(O)/C=C/c1ccc(Cn2ccnc2)c(Cl)c1 [Example 3, (E)-3-[3-Chloro-4-(imidazol-1-ylmethyl)phenyl] prop-2-enoic acid hydro chloride] | 0.05 µg/mL |  | at least 7 hours |
| O=C(O)CCc1ccc(Cn2ccnc2)c(Cl)c1 [Example 4, 3-[3-Chloro-4-(imidazol-1-ylmethyl)phenyl]proeanoic acid hydrochloride] | 0.08 µg/mL |  |  |
| Cl.O.O=C(O)C=Cc1ccc(Cn2ccnc2)c(Br)c1 [Example 6, 3-[3-Bromo-4-(imidazol-1-ylmethyl)phenyl]prop-2-enoic acid hydrochloride hydrate] | 0.015 µg/mL |  |  |
| O=C(O)c1ccc(C=CCn2ccnc2)cc1Cl [Example 10, 1-[3-(4-Carboxy-3-chlorophenyl)prop-2-enyl]imidazole hydrochloride hemihydrate] | 0.35 µg/mL |  |  |
